These results are taken from PMC10127203, “Trapoxin A Analogue as a Selective Nanomolar Inhibitor of HDAC11” (ACS Chemical Biology, 2023).

Data set [1] has as its system YAP1 target genes CTGF and CYR61 in A549 cells. As to the kind of experiment: mRNA level of YAP1 and YAP1 target genes (CTGF, CYR61) by qRT-PCR in A549 cells. It counts as cell-based. The protocol: A549 cells were treated with TD034 at 5 and 10 μM for 24 hr. Western blot was used to check for YAP1 protein level. qRT-PCR was used to check for YAP1 downstream genes transcription (CTGF and CYR61). Total RNA was extracted using IBI Isolate Total Extraction Reagent Kit (IB47602). […] of RNA was reverse transcribed using OneScript Plus cDNA Synthesis Kit (ABM G236) according to the manufacturer’s protocol. Real-time PCR was performed using BlasTaq 2X qPCR MasterMix (ABM G892) on a QuantStudio 3 Real-Time PCR System. All qPCR reactions were performed in triplicates. The list of primers is included in the Supporting Information.
On the technique in general: In qPCR the cycle at which signal appears reflects the starting amount.

For data set [2] the following is noted: pH 8.
A further data set deals with HDAC1 (Homo sapiens, UniProt Q13547). Description: HDAC1 enzyme activity assay (Ac-H3K9, HPLC). Particulars: read-out: HDAC1, % inhibition.
Chain of HDAC1 (Q13547 whole entry): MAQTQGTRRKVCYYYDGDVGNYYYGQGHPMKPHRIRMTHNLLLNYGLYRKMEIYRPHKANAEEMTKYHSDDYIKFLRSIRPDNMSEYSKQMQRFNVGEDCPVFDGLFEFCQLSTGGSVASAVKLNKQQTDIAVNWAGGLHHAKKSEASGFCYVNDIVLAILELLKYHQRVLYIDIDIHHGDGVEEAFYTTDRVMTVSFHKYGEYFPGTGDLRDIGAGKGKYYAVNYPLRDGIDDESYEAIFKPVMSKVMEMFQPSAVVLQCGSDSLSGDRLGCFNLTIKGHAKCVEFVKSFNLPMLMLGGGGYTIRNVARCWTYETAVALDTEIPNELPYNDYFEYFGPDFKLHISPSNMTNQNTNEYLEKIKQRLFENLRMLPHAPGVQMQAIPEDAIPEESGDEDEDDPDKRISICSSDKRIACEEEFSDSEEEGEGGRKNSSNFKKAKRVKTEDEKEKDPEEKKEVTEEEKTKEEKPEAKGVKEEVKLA
In a further data set the target is T1, SIRT1 (Homo sapiens, UniProt Q96EB6).
T1 sequence (Q96EB6 1-747): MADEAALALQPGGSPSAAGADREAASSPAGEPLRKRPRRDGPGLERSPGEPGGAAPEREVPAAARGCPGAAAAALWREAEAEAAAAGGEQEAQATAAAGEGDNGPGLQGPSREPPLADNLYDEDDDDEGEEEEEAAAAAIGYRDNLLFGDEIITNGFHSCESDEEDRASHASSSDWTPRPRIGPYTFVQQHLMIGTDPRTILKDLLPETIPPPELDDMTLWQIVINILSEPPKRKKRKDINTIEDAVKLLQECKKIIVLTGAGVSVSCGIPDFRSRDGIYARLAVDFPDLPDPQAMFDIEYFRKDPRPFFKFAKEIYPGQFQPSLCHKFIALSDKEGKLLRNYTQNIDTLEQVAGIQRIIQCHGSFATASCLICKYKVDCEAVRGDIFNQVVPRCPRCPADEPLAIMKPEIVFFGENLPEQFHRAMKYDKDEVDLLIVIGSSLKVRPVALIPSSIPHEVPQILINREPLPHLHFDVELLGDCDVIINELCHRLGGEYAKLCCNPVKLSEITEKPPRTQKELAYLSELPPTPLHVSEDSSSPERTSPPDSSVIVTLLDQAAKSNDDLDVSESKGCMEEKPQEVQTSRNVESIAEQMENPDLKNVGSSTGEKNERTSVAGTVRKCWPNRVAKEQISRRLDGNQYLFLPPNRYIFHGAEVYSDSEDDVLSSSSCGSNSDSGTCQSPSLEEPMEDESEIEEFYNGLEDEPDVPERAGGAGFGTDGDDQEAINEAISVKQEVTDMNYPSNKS
Description: SIRT1 enzyme activity assay (Ac-H3K9, NAD+, HPLC). The note with it: read-out: SIRT1, % inhibition.

In another data set the target is T2, HDAC6 (Homo sapiens, UniProt Q9UBN7).
T2 sequence (Q9UBN7 1-1215): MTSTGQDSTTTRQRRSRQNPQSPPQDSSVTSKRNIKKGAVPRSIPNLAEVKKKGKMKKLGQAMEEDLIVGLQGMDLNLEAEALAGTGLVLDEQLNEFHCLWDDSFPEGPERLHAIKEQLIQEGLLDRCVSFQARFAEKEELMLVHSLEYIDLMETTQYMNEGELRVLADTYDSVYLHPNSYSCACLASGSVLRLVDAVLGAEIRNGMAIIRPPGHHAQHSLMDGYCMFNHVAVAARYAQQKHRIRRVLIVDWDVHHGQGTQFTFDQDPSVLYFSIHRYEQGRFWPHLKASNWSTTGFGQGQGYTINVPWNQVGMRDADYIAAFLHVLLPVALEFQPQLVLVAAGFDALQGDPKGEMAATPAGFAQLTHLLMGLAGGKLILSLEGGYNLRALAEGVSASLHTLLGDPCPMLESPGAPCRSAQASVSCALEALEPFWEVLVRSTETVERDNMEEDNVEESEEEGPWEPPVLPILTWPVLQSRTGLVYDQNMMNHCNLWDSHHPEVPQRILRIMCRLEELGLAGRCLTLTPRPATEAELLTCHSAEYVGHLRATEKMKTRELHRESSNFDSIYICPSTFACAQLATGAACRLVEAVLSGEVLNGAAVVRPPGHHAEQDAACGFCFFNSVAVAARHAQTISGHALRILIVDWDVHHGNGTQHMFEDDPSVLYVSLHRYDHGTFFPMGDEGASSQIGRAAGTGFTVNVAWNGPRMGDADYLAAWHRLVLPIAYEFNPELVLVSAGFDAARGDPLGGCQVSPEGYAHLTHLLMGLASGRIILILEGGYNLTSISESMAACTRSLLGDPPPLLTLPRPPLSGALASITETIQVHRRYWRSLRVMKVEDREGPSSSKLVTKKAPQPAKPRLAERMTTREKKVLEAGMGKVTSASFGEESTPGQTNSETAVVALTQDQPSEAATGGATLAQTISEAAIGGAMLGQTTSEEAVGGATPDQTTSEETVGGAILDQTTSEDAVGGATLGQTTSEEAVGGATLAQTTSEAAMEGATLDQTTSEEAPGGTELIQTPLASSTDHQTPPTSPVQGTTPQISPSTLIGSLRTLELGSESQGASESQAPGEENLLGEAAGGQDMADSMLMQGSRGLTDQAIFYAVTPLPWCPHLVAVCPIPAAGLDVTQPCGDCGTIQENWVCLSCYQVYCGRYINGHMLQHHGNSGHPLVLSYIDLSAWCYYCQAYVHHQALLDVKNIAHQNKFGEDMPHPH
As to the kind of experiment: HDAC6 enzyme activity assay (Ac-H3K9, HPLC). Particulars: read-out: HDAC6, % inhibition.

SMILES strings stand for the structures.

Description for HDAC1: (§1) For HDAC1, 6, 8, and SIRT1-2, Ac-H3K9 was used as a substrate. […] The reaction was conducted for 15 min (HDAC11), 30 min (HDAC1, 4, 6, 8), and 5 min (SIRT1-2). Then, 20 μL of 0.2% TFA/acetonitrile was added to quench the reaction. The samples were analyzed by HPLC using a Chromolith HighResolution RP-18 end-capped 100 mm × 4.6 mm column (EMD Millipore). Mobile phase A was 0.1% TFA in water and mobile phase B was 0.1% TFA in acetonitrile. The total flow rate was 1 mL/min, and the gradient was 0% B (2 min), 0–60% B (7 min), 100% B (4 min), and 0% B (2 min). The relative ratio of product/substrate in each sample was compared to control sample (no inhibitor) to determine the inhibition level.
Description for HDAC6: as §1
Description for SIRT1: as §1

For the compound `CCCCCCCCCCC[C@H]1O[C@@H]1C(=O)CCCCC[C@@H]1NC(=O)[C@H]2CCCCN2C(=O)[C@H](Cc2ccccc2)NC(=O)[C@H](Cc2ccccc2)NC1=O` [TD034], the “YAP1 mRNA level” value in data set [1] is “not affected”. Also, the “mRNA levels of YAP1 target genes CTGF and CYR61” value in data set [1] (5 and 10 μM, 24 hr) was “decrease”. Besides, the “stability in Tris buffer and DTT” value in data set [2] is given as “relatively stable”. On HDAC1, the inhibition at 1 µM turned out to be 0%, the inhibition at 10 µM stood at 0% and the inhibition at 25 µM stood at 0%. Also, at SIRT1, the inhibition at 1 µM is 0%, the inhibition at 10 µM came to 0% and the inhibition at 25 µM came to 0%. In addition, on HDAC6, the inhibition at 1 µM came out at 0%, the inhibition at 10 µM was determined as 0% and the inhibition at 25 µM was 0%.

As a reminder, the inhibition is how much of the control response was suppressed.
